Data on five molecules can be found in US6929811B2, “Monoamine oxidase (MAO) inhibitors and uses thereof” (priority 1998, dated 2005).

Each structure is given as a SMILES string.

The test system of one test is MAO B. The test can be described thus: Selective MAO B assay in liver homogenate, other isoform blocked by selective inhibitor. It is filed as biochemical, cow or rat. As to conditions: saturating concentration; significantly different from control. How it is done:
(§1) Liver samples from cow or rat were obtained immediately after sacrifice. Liver was homogenized in a Polytron mechanical homogenizer in a ratio of 1 gram of liver to 1 ml of potassium phosphate buffer (0.2 M at pH of 7.6). Large membranes were removed by low speed centrifugation at 1000×g for 15 minutes. The supernatant was removed from the pellet and used immediately for MAO activity assays or stored at 0 degrees Centigrade. Protein levels were determined in the liver homogenate by the Bradford protein reaction.
(§2) The standard reaction conditions were developed as a modification of the spectrophotometric assay using standard conditions (Halt, A., et al., Analytical Biochemistry, 244:384-392 (1997)). Total MAO activity was determined by incubating the liver preparations for 30 minutes at 37 degrees Centigrade with a 1/1 dilution of a test fraction (compound or substance to be tested dissolved in distilled water) or control condition (water alone). […]
(§3) Following the incubation with test compounds/substances or control, the MAO reactions were initiated and the reactions were incubated at 37 degrees Centigrade. […] The stopped reactions were stored on ice and placed at room temperature for reading in a spectrophotometer at a wavelength of 498 nm. The resulting values were analyzed to determine the amount of reaction product produced by MAO activity. […]
(§4) Selective assays of MAO A and MAO B isoforms were determined by using selective inhibitors of each of these enzymes. […]
(§5) Each of the compounds and substances of the present invention were evaluated by initially determining a concentration curve at a reaction time of one hour. After determining the concentration curves of each compound or substance on MAO activity, a reaction time course in the presence or absence of test compound or substance was determined and time course curves were generated. Following these experiments, the effect of each test compound or substance was evaluated on MAO A and MAO B activity by the same reaction studies as described above for the total enzyme activity.

Another test deals with MAO. Nature of the test: Total MAO activity, spectrophotometric assay in liver homogenate. It is filed as biochemical, cow or rat. The conditions noted are these: for percent inhibition of MAO activity: at maximal or saturating inhibition concentrations, tyramine substrate, 37 degrees Centigrade; for maximal inhibition concentration: dissolved in distilled water, concentration curve at reaction time of one hour; for MAO inhibition over the reaction time course: saturating concentrations, over 60 minutes of MAO activity. The method, then:
The MAO activities of the compounds and substances were determined using standard reaction conditions as described in Halt, A., et al., Analytical Biochemistry, 244:384-392 (1997).
as §1
The standard reaction conditions were developed as a modification of the spectrophotometric assay using standard conditions (Halt, A., et al., Analytical Biochemistry, 244:384-392 (1997)). Total MAO activity was determined by incubating the liver preparations for 30 minutes at 37 degrees Centigrade with a 1/1 dilution of a test fraction (compound or substance to be tested dissolved in distilled water) or control condition (water alone). This incubation allowed the test compound or substance to interact with the enzyme under physiological conditions. The final tissue concentration in the reaction mixture was 3.5 mg per 100 ml.
Following the incubation with test compounds/substances or control, the MAO reactions were initiated and the reactions were incubated at 37 degrees Centigrade. The reaction was initiated by mixing 150 μl of preincubated tissue with 150 μl of chromogenic solution (containing 10 mM vanillic acid, 5 mM 4-amino antipyrene, 20 units/ml of peroxidase in 0.2 M potassium phosphate buffer final concentration pH 7.6), 600 μl of amine substrate (tyramine 500 micromolar), and 100 μl of distilled water (1 ml reaction volume). The standard reaction time was for 1 hour, but reaction times varied from 1 minute to 3 hours to evaluate the time course of the reaction in the presence or absence of test substance or control. The reactions were terminated by the addition of 30 μl of a stop solution of phenelzine (10 mM). The stopped reactions were stored on ice and placed at room temperature for reading in a spectrophotometer at a wavelength of 498 nm. The resulting values were analyzed to determine the amount of reaction product produced by MAO activity. This assay was reliable and simple to perform. A standard curve using hydrogen peroxide for enzyme activity was prepared for each experiment to determine the activity of the enzyme.
as §5

In a further test the test system is MAO A. Nature of the test: Selective MAO A assay in liver homogenate, other isoform blocked by selective inhibitor. Format: biochemical, cow or rat. The conditions noted are these: saturating concentration; significantly different from control. The method, then: as §1, §2, §3, §4, §5
Another test concerns MPTP induced toxicity. The conditions noted are these: mice, cited from earlier work; for effect on dopamine levels: MPTP.

For `C1=CCC(c2cccnc2)NC1` (stereo not shown) [anatabine, Anatabine], the “inhibition of MAO B activity” value in the test with MAO B is “equally effective in inhibiting both MAO A and MAO B activities”. In the test with MAO, the “percent inhibition of MAO activity” value is listed as “approximately 60%”, the maximal inhibition concentration turned out to be 0.1 mg/mL and the “MAO inhibition over the reaction time course” value is “effective at inhibiting the enzyme at all time points in the reaction”. Moreover, the “inhibition of MAO A activity” value in the test on MAO A is “equally effective in inhibiting both MAO A and MAO B activities”.
For `c1cncc([C@@H]2CCCCN2)c1` [anabasine, Anabasine], in the test on MAO B, the “inhibition of MAO B activity” value was “inhibit both MAO A and MAO B activity”. For the same molecule, in the test on MAO, the “percent inhibition of MAO activity” value is listed as 10-13%, the maximal inhibition concentration was found to be 0.2 mg/mL and the “MAO inhibition over the reaction time course” value is “effective at inhibiting the enzyme at all time points in the reaction”. Further, the “inhibition of MAO A activity” value in the test on MAO A is “inhibit both MAO A and MAO B activity”.
On to `c1ccc(-c2ccncc2)cc1` [4-phenylpyridine], for which, in the test on MPTP induced toxicity, the “effect on dopamine levels” value is “no significant effect on dopamine levels” and the “effect on decrease in dopamine metabolite levels induced by MPTP” value was “prevented the decrease in dopamine metabolite levels”.
As for `c1cncc([C@@H]2CCCN2)c1` [nornicotine, Nornicotine], the “inhibition of MAO B activity” value with MAO B is “equally effective in inhibiting both MAO A and MAO B activities”. Moreover, in the test on MAO, the “percent inhibition of MAO activity” value is 80 to 95%, the maximal inhibition concentration stood at 0.08 mg/mL and the “MAO inhibition over the reaction time course” value is “effective at inhibiting the enzyme at all time points in the reaction”. In addition, in the test on MAO A, the “inhibition of MAO A activity” value was “equally effective in inhibiting both MAO A and MAO B activities”.
As to `CN1CCCC1c1cccnc1` (stereo not shown) [nicotine], in the test on MPTP induced toxicity, the “effect on dopamine levels” value is “no significant effect on dopamine levels” and the “effect on decrease in dopamine metabolite levels induced by MPTP” value is listed as “prevented the decrease in dopamine metabolite levels”.
